Results from PubChem BioAssay AID2060326 (Molecular Pharmacology Branch, DTP, NCI, 2025).
“And” between values parts separate entries of the source, which are not always exact repeats. Equal values may be shown once.

Test system: MDA-MB-468 multi-cell spheroids, viability
Assay: Anticancer human tumor MDA-MB-468 cell line growth inhibition [IpAb];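 note: spheroids exposed to agents for seven days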;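 for viability, T/C: 100% = DMSO vehicle control viability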
Conditions: for viability, T/C: stronger effect = lower value
In short: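 Multi-cell spheroids of 60% tumour cells, 25% HUVEC and 15% MSC in ultra-low-attachment U-bottom wells, treated with agents combined with ipatasertib or abemaciclib. Half-log ranges top out near clinical Cmax, or 10 microM when Cmax is unknown.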

[1] = curve of first compound, second compound 0.1 µM
[2] = curve of first compound, second compound 0.316 µM
[3] = curve of first compound, second compound 1 µM
[4] = curve of first compound, second compound 3.16 µM
[5] = curve of first compound, second compound 10 µM
[6] = second compound 0.1 µM, first compound 0.00316 µM
[7] = second compound 0.1 µM, first compound 0.01 µM
[8] = second compound 0.1 µM, first compound 0.0316 µM
[9] = second compound 0.1 µM, first compound 0.1 µM
[10] = second compound 0.316 µM, first compound 0.00316 µM
[11] = second compound 0.316 µM, first compound 0.01 µM
[12] = second compound 0.316 µM, first compound 0.0316 µM
[13] = second compound 0.316 µM, first compound 0.1 µM
[14] = second compound 1 µM, first compound 0.00316 µM
[15] = second compound 1 µM, first compound 0.01 µM
[16] = second compound 1 µM, first compound 0.0316 µM
[17] = second compound 1 µM, first compound 0.1 µM
[18] = second compound 3.16 µM, first compound 0.00316 µM
[19] = second compound 3.16 µM, first compound 0.01 µM
[20] = second compound 3.16 µM, first compound 0.0316 µM
[21] = second compound 3.16 µM, first compound 0.1 µM
[22] = second compound 10 µM, first compound 0.00316 µM
[23] = second compound 10 µM, first compound 0.01 µM
[24] = second compound 10 µM, first compound 0.0316 µM
[25] = second compound 10 µM, first compound 0.1 µM

| Structure (SMILES) | IC50 [1] [nM] | IC50 [2] [nM] | IC50 [3] [nM] | IC50 [4] [nM] | IC50 [5] [nM] | viability, T/C [6] [%] | viability, T/C [7] [%] | viability, T/C [8] [%] | viability, T/C [9] [%] | viability, T/C [10] [%] | viability, T/C [11] [%] | viability, T/C [12] [%] | viability, T/C [13] [%] | viability, T/C [14] [%] | viability, T/C [15] [%] | viability, T/C [16] [%] | viability, T/C [17] [%] | viability, T/C [18] [%] | viability, T/C [19] [%] | viability, T/C [20] [%] | also measured |
| --- | --- | --- | --- | --- | --- | --- | --- | --- | --- | --- | --- | --- | --- | --- | --- | --- | --- | --- | --- | --- | --- |
| COc1c(OCCCN2CCOCC2)ccc2c3n(c(=NC(=O)c4cnc(N)nc4)nc12)CCN3 + CC(C)NCC(C(=O)N1CCN(c2ncnc3c2C(C)CC3O)CC1)c1ccc(Cl)cc1 | 83.7 | 33.8 | < 3.16 | < 3.16 | < 3.16 | 98.4 | 78.2 | 70.2 | 49.7 | 68.5 | 56.1 | 54 | 36.3 | 51.3 | 40.3 | 38.9 | 26.8 | 30.4 | 26.5 | 23 | viability, T/C (second compound 0.1 µM, first compound 0.316 µM): 20.3%; viability, T/C (second compound 0.1 µM, first compound 1 µM): 3.61%; viability, T/C (second compound 0.316 µM, first compound 0.316 µM): 18.1%; viability, T/C (second compound 0.316 µM, first compound 1 µM): 2.31%; viability, T/C (second compound 1 µM, first compound 0.316 µM): 11.9%; viability, T/C (second compound 1 µM, first compound 1 µM): 1.77%; viability, T/C [21]: 19.1%; viability, T/C (second compound 3.16 µM, first compound 0.316 µM): 9.55%; viability, T/C (second compound 3.16 µM, first compound 1 µM): 1.46%; viability, T/C [22]: 16.1%; viability, T/C [23]: 12.8%; viability, T/C [24]: 11%; viability, T/C [25]: 8.37%; viability, T/C (second compound 10 µM, first compound 0.316 µM): 4.92%; viability, T/C (second compound 10 µM, first compound 1 µM): 0.95% |
| COc1c(OCCCN2CCOCC2)ccc2c3n(c(=NC(=O)c4cnc(N)nc4)nc12)CCN3 | – | – | – | – | – | – | – | – | – | – | – | – | – | – | – | – | – | – | – | – | viability, T/C (compound 0.00316 µM): 89% and 95.1%; viability, T/C (compound 0.01 µM): 95% and 91.5%; viability, T/C (compound 0.0316 µM): 73% and 72.7%; viability, T/C (compound 0.1 µM): 63.9% and 66.5%; viability, T/C (compound 0.316 µM): 25.6% and 23.6%; viability, T/C (compound 1 µM): 4.06% and 3.22%; IC50 (curve of compound): 141 nM and 139 nM |
| CC(C)n1nc(-c2ccc3oc(N)nc3c2)c2c(N)ncnc21 + CC(C)NCC(C(=O)N1CCN(c2ncnc3c2C(C)CC3O)CC1)c1ccc(Cl)cc1 | 5.15 | 2.36 | < 0.316 | < 0.316 | < 0.316 | 58.3 | 38.7 | 15.8 | 7.82 | 48.6 | 23.4 | 9.26 | 5.3 | 31.1 | 11.3 | 5.17 | 3.13 | 16.8 | 5.94 | 2.41 | viability, T/C (second compound 0.1 µM, first compound 0.000316 µM): 76.6%; viability, T/C (second compound 0.1 µM, first compound 0.001 µM): 72.1%; viability, T/C (second compound 0.316 µM, first compound 0.000316 µM): 59%; viability, T/C (second compound 0.316 µM, first compound 0.001 µM): 54.5%; viability, T/C (second compound 1 µM, first compound 0.000316 µM): 47.6%; viability, T/C (second compound 1 µM, first compound 0.001 µM): 41%; viability, T/C (second compound 3.16 µM, first compound 0.000316 µM): 31.4%; viability, T/C (second compound 3.16 µM, first compound 0.001 µM): 25.4%; viability, T/C [21]: 1.21%; viability, T/C (second compound 10 µM, first compound 0.000316 µM): 15.7%; viability, T/C (second compound 10 µM, first compound 0.001 µM): 14.3%; viability, T/C [22]: 7.69%; viability, T/C [23]: 3.03%; viability, T/C [24]: 0.6%; viability, T/C [25]: 0.38% |
